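Exposure lasted 48 hours, with cells grown in 96-well plates and compounds tested at five concentrations. GI50 = concentration required for 50% inhibition of growth.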 The source made the active and inactive calls. Rule as the data show it: active = GI50 up to about 1.1 µM and inactive = higher.
Columns and labels:
Assay in all cases: DTP human tumour cell line panel, 48 h
SK-MEL-5 = tested on: SK-MEL-5
NCI-H226 = tested on: NCI-H226
MOLT-4 = tested on: MOLT-4
RXF 393 = tested on: RXF 393
SW-620 = tested on: SW-620
OVCAR-8 = tested on: OVCAR-8
HCT-15 = tested on: HCT-15
HCT-116 = tested on: HCT-116
ACHN = tested on: ACHN
NCI/ADR-RES = tested on: NCI/ADR-RES
MDA-N = tested on: MDA-N
K562 = tested on: K562
SK-OV-3 = tested on: SK-OV-3
NCI-H522 = tested on: NCI-H522
OVCAR-5 = tested on: OVCAR-5
UACC-62 = tested on: UACC-62
OVCAR-4 = tested on: OVCAR-4
SF-539 = tested on: SF-539
HOP-92 = tested on: HOP-92

CCOC(=O)NCC(=O)NCC(=O)NCC(N)=O
GI50 (SK-MEL-5): > 100 µM (inactive)
GI50 (NCI-H226): > 100 µM (inactive)
GI50 (MOLT-4): > 100 µM (inactive)
GI50 (RXF 393): > 100 µM (inactive)
GI50 (SW-620): > 100 µM (inactive)
GI50 (OVCAR-8): > 100 µM (inactive)
GI50 (HCT-15): > 100 µM
GI50 (HCT-116): > 100 µM (inactive)
GI50 (ACHN): > 100 µM (inactive)
GI50 (NCI/ADR-RES): > 100 µM (inactive)
GI50 (MDA-N): > 100 µM (inactive)
GI50 (K562): > 100 µM (inactive)
GI50 (SK-OV-3): > 100 µM (inactive)
GI50 (NCI-H522): > 100 µM (inactive)
GI50 (OVCAR-5): > 100 µM (inactive)
GI50 (UACC-62): > 100 µM (inactive)
GI50 (OVCAR-4): > 100 µM (inactive)

Cc1nc2c(o1)C(=O)c1ccccc1/C2=N/c1ccccn1
GI50 (SK-MEL-5): 16.7 µM (inactive)
GI50 (MOLT-4): 17.7 µM (inactive)
GI50 (RXF 393): > 100 µM (inactive)
GI50 (SW-620): 17.8 µM (inactive)
GI50 (OVCAR-8): 15.4 µM (inactive)
GI50 (SF-539): 18.2 µM (inactive)
GI50 (HCT-15): 14 µM
GI50 (HCT-116): 20.4 µM (inactive)
GI50 (HOP-92): 18.2 µM (inactive)
GI50 (ACHN): 17.3 µM (inactive)
GI50 (NCI/ADR-RES): 15.8 µM (inactive)
GI50 (MDA-N): 17.3 µM (inactive)
GI50 (K562): 29.8 µM (inactive)
GI50 (SK-OV-3): > 100 µM (inactive)
GI50 (NCI-H522): 19 µM (inactive)
GI50 (OVCAR-5): 17.9 µM (inactive)
GI50 (UACC-62): 20 µM (inactive)
GI50 (OVCAR-4): 15 µM (inactive)

C=C1C(=O)CCC1C(=O)O (configuration not stated)
GI50 (SK-MEL-5): > 100 µM (inactive)
GI50 (NCI-H226): > 100 µM (inactive)
GI50 (MOLT-4): > 100 µM (inactive)
GI50 (RXF 393): > 100 µM (inactive)
GI50 (SW-620): > 100 µM (inactive)
GI50 (OVCAR-8): > 100 µM (inactive)
GI50 (SF-539): > 100 µM (inactive)
GI50 (HCT-15): > 100 µM
GI50 (HCT-116): > 100 µM (inactive)
GI50 (ACHN): > 100 µM (inactive)
GI50 (NCI/ADR-RES): > 100 µM (inactive)
GI50 (MDA-N): > 100 µM (inactive)
GI50 (K562): > 100 µM (inactive)
GI50 (SK-OV-3): > 100 µM (inactive)
GI50 (NCI-H522): > 100 µM (inactive)
GI50 (OVCAR-5): > 100 µM (inactive)
GI50 (UACC-62): > 100 µM (inactive)
GI50 (OVCAR-4): > 100 µM (inactive)

COc1ccc2cc(NC(=O)N/N=C\c3ccc(Cl)cc3)ccc2c1
GI50 (NCI-H226): > 100 µM (inactive)
GI50 (MOLT-4): > 100 µM (inactive)
GI50 (SW-620): > 100 µM (inactive)
GI50 (OVCAR-8): 96.8 µM (inactive)
GI50 (SF-539): 43.1 µM (inactive)
GI50 (HCT-15): > 100 µM
GI50 (HCT-116): > 100 µM (inactive)
GI50 (HOP-92): > 100 µM (inactive)
GI50 (ACHN): > 100 µM (inactive)
GI50 (NCI/ADR-RES): 86.3 µM (inactive)
GI50 (MDA-N): > 100 µM (inactive)
GI50 (K562): > 100 µM (inactive)
GI50 (SK-OV-3): > 100 µM (inactive)
GI50 (NCI-H522): > 100 µM (inactive)
GI50 (OVCAR-5): > 100 µM (inactive)
GI50 (UACC-62): 40.3 µM (inactive)
GI50 (OVCAR-4): 27 µM (inactive)

CCN(CC)CCn1c2cc3c(cc2c(=O)c2cccnc21)OCCO3
GI50 (SK-MEL-5): > 10 µM (inactive)
GI50 (MOLT-4): 3.78 µM (inactive)
GI50 (RXF 393): > 10 µM (inactive)
GI50 (SW-620): 5.28 µM (inactive)
GI50 (OVCAR-8): > 10 µM (inactive)
GI50 (SF-539): > 10 µM (inactive)
GI50 (HCT-15): > 10 µM
GI50 (HCT-116): 4.72 µM (inactive)
GI50 (HOP-92): > 10 µM (inactive)
GI50 (ACHN): 4.99 µM (inactive)
GI50 (NCI/ADR-RES): > 10 µM (inactive)
GI50 (MDA-N): > 10 µM (inactive)
GI50 (SK-OV-3): > 10 µM (inactive)
GI50 (NCI-H522): > 10 µM (inactive)
GI50 (UACC-62): > 10 µM (inactive)
GI50 (OVCAR-4): > 10 µM (inactive)

Cc1cc2[nH]c3c(C#N)c(-c4ccccc4)c(CN4CCOCC4)c(=O)n3c2cc1C
GI50 (NCI-H226): > 100 µM (inactive)
GI50 (RXF 393): > 100 µM (inactive)
GI50 (SW-620): > 100 µM (inactive)
GI50 (OVCAR-8): > 100 µM (inactive)
GI50 (SF-539): > 100 µM (inactive)
GI50 (HCT-15): > 100 µM
GI50 (HCT-116): > 100 µM (inactive)
GI50 (ACHN): > 100 µM (inactive)
GI50 (NCI/ADR-RES): > 100 µM (inactive)
GI50 (MDA-N): > 100 µM (inactive)
GI50 (SK-OV-3): > 100 µM (inactive)
GI50 (NCI-H522): > 100 µM (inactive)
GI50 (OVCAR-5): > 100 µM (inactive)
GI50 (OVCAR-4): > 100 µM (inactive)

COc1ccc(-c2c3ccccc3c(-c3ccc(OCCBr)cc3)c3ccccc23)cc1
GI50 (SK-MEL-5): > 100 µM (inactive)
GI50 (NCI-H226): > 100 µM (inactive)
GI50 (MOLT-4): > 100 µM (inactive)
GI50 (RXF 393): > 100 µM (inactive)
GI50 (SW-620): > 100 µM (inactive)
GI50 (OVCAR-8): > 100 µM (inactive)
GI50 (SF-539): > 100 µM (inactive)
GI50 (HCT-15): > 100 µM
GI50 (HCT-116): > 100 µM (inactive)
GI50 (ACHN): > 100 µM (inactive)
GI50 (NCI/ADR-RES): > 100 µM (inactive)
GI50 (MDA-N): > 100 µM (inactive)
GI50 (SK-OV-3): > 100 µM (inactive)
GI50 (NCI-H522): > 100 µM (inactive)
GI50 (OVCAR-5): > 100 µM (inactive)
GI50 (UACC-62): > 100 µM (inactive)
GI50 (OVCAR-4): > 100 µM (inactive)

CC(=O)ON(OC(C)=O)c1ccc(C)cc1
GI50 (SK-MEL-5): > 100 µM (inactive)
GI50 (MOLT-4): > 100 µM (inactive)
GI50 (RXF 393): > 100 µM (inactive)
GI50 (SW-620): > 100 µM (inactive)
GI50 (OVCAR-8): > 100 µM (inactive)
GI50 (HCT-15): > 100 µM
GI50 (HCT-116): > 100 µM (inactive)
GI50 (HOP-92): > 100 µM (inactive)
GI50 (ACHN): > 100 µM (inactive)
GI50 (NCI/ADR-RES): > 100 µM (inactive)
GI50 (MDA-N): > 100 µM (inactive)
GI50 (K562): > 100 µM (inactive)
GI50 (SK-OV-3): > 100 µM (inactive)
GI50 (NCI-H522): > 100 µM (inactive)
GI50 (OVCAR-5): > 100 µM (inactive)
GI50 (UACC-62): > 100 µM (inactive)
GI50 (OVCAR-4): > 100 µM (inactive)

COC1OC(Cn2cc([N+](=O)[O-])nc2C)C(O)C(O)C1O (configuration not stated)
GI50 (SK-MEL-5): > 100 µM (inactive)
GI50 (MOLT-4): > 100 µM (inactive)
GI50 (RXF 393): > 100 µM (inactive)
GI50 (SW-620): > 100 µM (inactive)
GI50 (HCT-15): > 100 µM
GI50 (HCT-116): > 100 µM (inactive)
GI50 (HOP-92): > 100 µM (inactive)
GI50 (ACHN): > 100 µM (inactive)
GI50 (NCI/ADR-RES): > 100 µM (inactive)
GI50 (MDA-N): > 100 µM (inactive)
GI50 (K562): > 100 µM (inactive)
GI50 (SK-OV-3): > 100 µM (inactive)
GI50 (NCI-H522): > 100 µM (inactive)
GI50 (OVCAR-5): > 100 µM (inactive)
GI50 (UACC-62): > 100 µM (inactive)
GI50 (OVCAR-4): > 100 µM (inactive)

COC(=O)/C=c1/c2ccccc2n2c1c1ccccc1[n+]2C
GI50 (SK-MEL-5): 2.81 µM (inactive)
GI50 (NCI-H226): 5.52 µM (inactive)
GI50 (MOLT-4): 4.27 µM (inactive)
GI50 (RXF 393): 4.54 µM (inactive)
GI50 (SW-620): 2.76 µM (inactive)
GI50 (OVCAR-8): 3.33 µM (inactive)
GI50 (SF-539): 3.82 µM (inactive)
GI50 (HCT-15): 13.4 µM
GI50 (HCT-116): 3.31 µM (inactive)
GI50 (ACHN): 3.92 µM (inactive)
GI50 (NCI/ADR-RES): 31.3 µM (inactive)
GI50 (MDA-N): 3.54 µM (inactive)
GI50 (K562): 3.64 µM (inactive)
GI50 (SK-OV-3): 2.67 µM (inactive)
GI50 (OVCAR-5): 4.6 µM (inactive)
GI50 (UACC-62): 6.73 µM (inactive)
GI50 (OVCAR-4): 4.11 µM (inactive)

CSc1nc(Cl)c2c(n1)Sc1nc3cc4c(cc3n1C2O)OCO4 (configuration not stated)
GI50 (SK-MEL-5): 0.526 µM (active)
GI50 (NCI-H226): 1.1 µM (active)
GI50 (RXF 393): 1.96 µM (inactive)
GI50 (SW-620): 0.33 µM (active)
GI50 (OVCAR-8): 0.575 µM (active)
GI50 (SF-539): 0.126 µM (active)
GI50 (HCT-15): 0.31 µM
GI50 (HCT-116): 0.0863 µM (active)
GI50 (ACHN): 0.946 µM (active)
GI50 (NCI/ADR-RES): 0.385 µM (active)
GI50 (MDA-N): 0.237 µM (active)
GI50 (K562): 0.29 µM (active)
GI50 (SK-OV-3): 1.72 µM (inactive)
GI50 (NCI-H522): 0.26 µM (active)
GI50 (OVCAR-5): 0.92 µM (active)
GI50 (UACC-62): 0.43 µM (active)
GI50 (OVCAR-4): > 100 µM (inactive)

COC(=O)C1CCC(=O)N1C(c1ccccc1)c1ccc(OC)c(OC)c1 (configuration not stated)
GI50 (SK-MEL-5): > 100 µM (inactive)
GI50 (NCI-H226): > 100 µM (inactive)
GI50 (MOLT-4): > 10 µM (inactive)
GI50 (SW-620): > 100 µM (inactive)
GI50 (OVCAR-8): > 100 µM (inactive)
GI50 (SF-539): > 100 µM (inactive)
GI50 (HCT-15): > 100 µM
GI50 (HCT-116): > 100 µM (inactive)
GI50 (HOP-92): > 100 µM (inactive)
GI50 (ACHN): > 100 µM (inactive)
GI50 (NCI/ADR-RES): > 100 µM (inactive)
GI50 (MDA-N): > 100 µM (inactive)
GI50 (K562): > 100 µM (inactive)
GI50 (SK-OV-3): > 100 µM (inactive)
GI50 (NCI-H522): > 100 µM (inactive)
GI50 (OVCAR-5): > 100 µM (inactive)
GI50 (UACC-62): > 100 µM (inactive)
GI50 (OVCAR-4): > 100 µM (inactive)

From ChEMBL document CHEMBL1201862, “PubChem BioAssay data set” (2004)
